We go through two molecules from publication PMC11259535 (ACS chemical biology, 2024).

The target in data set [1] is T1, succinyl-CoA:glutarate-CoA transferase (SUGCT) (Homo sapiens, UniProt Q9HAC7, Q255A/K256A).
T1 sequence (Q9HAC7 31-438 Q255A/K256A): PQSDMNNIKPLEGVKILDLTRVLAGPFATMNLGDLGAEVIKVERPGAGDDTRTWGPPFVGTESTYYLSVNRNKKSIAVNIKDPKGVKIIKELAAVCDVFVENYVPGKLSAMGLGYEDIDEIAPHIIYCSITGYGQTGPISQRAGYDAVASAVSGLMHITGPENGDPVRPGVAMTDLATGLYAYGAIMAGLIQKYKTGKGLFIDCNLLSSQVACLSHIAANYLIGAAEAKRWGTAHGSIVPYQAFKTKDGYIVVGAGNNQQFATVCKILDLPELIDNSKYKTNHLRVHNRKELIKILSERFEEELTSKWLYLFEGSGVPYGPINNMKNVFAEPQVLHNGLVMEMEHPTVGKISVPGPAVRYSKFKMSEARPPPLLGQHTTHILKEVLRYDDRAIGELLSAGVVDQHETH
Put plainly: co-crystal structure. Type of data set: binding.

Substrate in data set [2]: CC(C)(COP(=O)(O)OP(=O)(O)OC[C@H]1O[C@@H](n2cnc3c(N)ncnc32)[C@H](O)[C@@H]1OP(=O)(O)O)[C@@H](O)C(=O)NCCC(=O)NCCSC(=O)CCCC(=O)O
Kind of data set: saturation kinetics. Type of data set: biochemical, Homo sapiens.

Changes are numbered by the printed parent chain.

Regarding `CCCCc1nc(Cl)c(C(=O)O)n1Cc1ccc(-c2ccccc2-c2nn[nH]n2)cc1` [losartan carboxylic acid], the co-crystal structure entry in data set [1] is reported as “There was unambiguous density for losartan carboxylic acid in one of the four active sites”.

B1: succinyl-CoA:glutarate-CoA transferase (SUGCT) (Homo sapiens) (protein)
chain: T1 sequence (Q9HAC7 31-438 Q255A/K256A) with A225Q, A226K
As a reminder, the Km is the substrate concentration at which the rate is half of its maximum. As for B1, in data set [2], the Km was found to be 17.3 µM.
